Patent publication US12233041B2, “Disulfonate stilbenes for use in the treatment of proliferative diseases” (UNIVERSITÉ DE NANTES, priority 2018, dated 2025)
Like-named read-outs stand apart in the source and are kept apart here.

What was measured:
Rad51 [1] = target: T1, Rad51 (Homo sapiens, UniProt Q06609); assay: DNA invasion by D-loop assay (strand exchange); assay type: biochemical
T1 sequence (Q06609 1-339): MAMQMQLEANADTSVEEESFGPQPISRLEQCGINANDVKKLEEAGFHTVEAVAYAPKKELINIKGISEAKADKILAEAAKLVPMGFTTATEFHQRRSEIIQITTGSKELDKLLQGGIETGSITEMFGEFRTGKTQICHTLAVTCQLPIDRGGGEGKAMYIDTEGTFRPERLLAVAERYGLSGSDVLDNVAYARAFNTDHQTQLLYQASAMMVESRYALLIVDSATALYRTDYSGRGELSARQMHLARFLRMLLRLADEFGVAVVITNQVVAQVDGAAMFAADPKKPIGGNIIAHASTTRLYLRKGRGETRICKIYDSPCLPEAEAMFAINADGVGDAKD
Protocol: Labeled 100-ssDNA** (1 μM) was incubated with 0.5 μM Rad51 in presence or absence of the indicated amounts of the corresponding molecule in 10 μL of standard reaction buffer containing 20 mM Tris-HCl (pH 8), 1 mM ATP, 1 mM DTT, 1 mM CaCl2) at 37° C. for 20 min. The reaction was initiated by adding supercoiled pPB4.3 DNA (200 μM in bp). After incubation of 30 min at 37° C., the reactions were stopped and deproteinized by a stop solution (10 mM Tris-HCl pH 8, 10 mM MgCl2, 1% SDS, and 1 mg/mL proteinase K. The reaction mixtures were further incubated for 15 min at 37° C. After adding 5-fold loading dye (0.05% bromophenol blue, 8% glycerol, 1 mM EDTA), the reaction products were separated by electrophoresis on 1% agarose gel. The electrophoresis was carried out in 0.5×TAE buffer (20 mM Tris, 10 mM acetic acid and 1 mM EDTA) at 100 V for 2 h. The labeled products (100-ssDNA** and D-loop) were visualized and quantified by the detection of the IRD-700 dye with the 700 nm infrared fluorescent detection channel of an Odyssey Infrared Imager (LI-COR) (Normand, A. et al., Biochemical Pharmacology, October 2014, Vol. 91, No. 3, pp. 293-300).
The “D-loop” in vitro test allows the quantification of the formation of the strand exchange structure (D-loop) and thus the determination of the inhibitory power of a molecule during the strand exchange step of the recombinase mechanism. IC50 measuring the RAD51 protein inhibition in presence of compounds A-1 to A-5, […] and DIDS are then calculated.

HsRad51 = target: T2, HsRad51 (Homo sapiens, UniProt Q06609); assay: RAD51 oligomerization by SDS-PAGE gel after crosslink; assay type: biochemical; details: 2.5 μM HsRad51, disuccinimidyl suberate crosslink, SDS-PAGE/Western blot; FIG. 1
T2 sequence (Q06609 1-339): T1 sequence (Q06609 1-339)
Protocol: The reaction was performed at room temperature. 2.5 μm HsRad51 was incubated with the indicated concentrations of tested compounds for 10 min in a buffer containing 20 mm sodium phosphate, 50 mm NaCl, 1 mm MgCl 2, and 1 mm ATP. The cross-linking reactions were initiated by the addition of disuccinimidyl suberate (50 μm) and allowed to proceed for 30 min. Reactions were quenched by the addition of Tris-HCl (pH 7.5, final concentration: 50 mm) followed by subsequent incubations for 15 min. The products were then separated by 12% SDS polyacrylamide gel electrophoresis and detected by Western blot with mouse monoclonal anti-Rad51 antibody (NeoMarkers) and anti-mouse Alexa-Fluor 700-conjugated secondary antibody (Molecular Probes, Eugene, OR). The cross-linked dimer was quantified by an Odyssey Infrared Imaging System scanner (Li-Cor Biosciences) (Martinez, S. F. et al., “Targeting human Rad51 by specific DNA aptamers induces inhibition of homologous recombination”, Biochimie, December 2010, Vol. 92, No. 12, pp. 1832-1838).
The SDS-PAGE electrophoresis after crosslink maintains and immobilizes the RAD51 protein complexes and thus allows visualization of the degree of oligomerization (polymer formation) of the RAD51 protein. The effect of RAD51 protein inhibitors B-1, B-2, B-3, DIDS and X-4 on this key step of RAD51 protein recombinase activity has thus been evaluated. The results are presented on FIG. 1.

Rad51 [2] = target: T1, Rad51; assay: RAD51 nucleofilament formation by Bio-Layer Interferometry (BLItz), binding of Rad51 to ssDNA; details: for activity on nucleofilament formation compared with reference molecule BPQ / formation of RAD51 protein nucleofilament (relative binding of RAD51 protein with single-stranded DNA): FIG. 2; for formation of RAD51 protein nucleofilament (relative binding of RAD51 protein with single-stranded DNA): increasing doses of inhibitors; for activity on nucleofilament formation compared with reference molecule DIDS: low dose (5 μM)
Protocol: The binding of Rad51 to ssDNA was monitored and quantified by Bio-Layer Interferometry technology using the BLItz platform (FortéBio Inc.). The procedure includes four steps: (1) the baseline in buffer A containing 1×PBS, 10 mM MgCl2 and 0.0075% Tween20 was recorded for 20 s; (2) loading and binding of Rad51 were measured for 40 s using 1.5 μM Rad51 and 1 mM ATP in buffer A; (3) the dissociation of Rad51 from ssDNA was recorded for 20 s in buffer A; (4) the ssDNA biosensor was regenerated using baths of 50 mM NaOH. Except for the step 2, which used 4 μL drop of the protein sample, the steps 1, 3 and 4 used 250 μL solutions in 0.5 mL tube. The measurement parameters were as follows: room temperature measurement and stirring speed of 2200 rpm. To investigate the effect of CSB and analogs to the ssDNA binding of Rad51, the molecule was included in the protein sample of the step 2 at the indicated concentrations and incubated for 5 min before loading on the biosensor. (Normand, A. et al., “Identification and characterization of human Rad51 inhibitors by screening of an existing drug library.”, Biochemical Pharmacology, October 2014, Vol. 91, No. 3, pp. 293-300).
A test based on interferometry (Blitz®, Fortebio) allows the measure of the association kinetics of RAD51 protein with a single-stranded DNA immobilized on a biosensor support in the presence or absence of an inhibitor. The effect of compounds B-1, B-2, B-3, BPQ and X-4 on RAD51 nucleofilament formation has been evaluated in presence of increasing doses of inhibitors. The results are presented on FIG. 2.

[3] = tested on: recombinant fibroblast line RG37; assay: Intracellular homologous recombination (HR), GFP reconstitution after I-SceI cleavage, flow cytometry; assay type: cell-based; details: RG37 cells, 72 h after pCMV-HA-I-SceI transfection; FIG. 3
Protocol: After transfection with the pCMV-HA-I-SceI plasmid and incubation for 72 h, the cells were collected in PBS and 50 mM EDTA, pelleted and fixed with 2% paraformaledhyde for 20 min. The percentage of GFP-expressing cells was scored by FACS analysis using Cytoflex (Beckman Coulter). At least 3 independent experiments were performed, and HA-I-SceI expression was verified each time by Western blot with rabbit anti-HA antibody (Abcam).
The recombinant fibroblast line RG37 is used to confirm in vitro results (Examples 2-5) in the cellular context. This cellar line comprises two non-functional GFP cassettes, one of which has a unique cleavage site inducible by transfection of a restriction enzyme. After cleavage, which is equivalent to a double-strand break (DSB) of the DNA, the homologous recombination (HR) leads to the reconstitution of a complete GFP cassette thus making the cell fluorescent. The rate of intracellular HR is then determined by measurement in flow cytometry so as to measure the level of HR in cells after treatment with compounds C-3, B-2 and X-2.

DU-145 cell line = assay: Clonogenicity test, sensitizing effect with an antineoplastic drug; assay type: cell-based; details: Homo sapiens; DU-145, camptothecin alone; read-out: IC50 (clonogenic survival, camptothecin)
Protocol: Clonogenicity tests are carried out against several model cell lines derived from cancer including prostate cancer (DU-145). Cells are exposed to an anti-cancer agent targeting DNA (cisplatin or camptothecin). Damaged cells are counted and seeded in the presence or in the absence of B-2 in triplicate culture plates. After about two weeks of incubation at 37° C. the number of clones formed is counted. Each cell capable of repairing its lesions will then form a clone. After counting, the percentage of survival will be calculated relative to the control condition for which it is considered that there is 100% survival.
The main interest of RAD51 protein inhibitors is the sensitization of chemo-resistant or radio-resistant cancerous cell lines. Clonogenicity evaluation was carried out on the DU-145 cell line treated with cisplatin treatment in the presence or in the absence of disulfonate stilbene B-2 (RAD51 protein inhibitor).
DU-145 cell line was treated with camptothecin in the presence or in the absence of disulfonate stilbene B-2 (RAD51 protein inhibitor) and the clonogenic cell survival was determined.

[4] = 0.5 μM Rad51, 1 μM 100-ssDNA, 37° C., read-out: IC50 (RAD51 protein inhibition, D-loop formation)

| Compound | IC50 (Rad51 [1]; [4]) [µM] | oligomerization state of RAD51 protein (HsRad51) | formation of RAD51 protein nucleofilament (relative binding of RAD51 protein with single-stranded DNA) (Rad51 [2]) | other results |
| --- | --- | --- | --- | --- |
| O=C(Nc1ccc(/C=C/c2ccc(NC(=O)c3ccccc3)cc2S(=O)(=O)O)c(S(=O)(=O)O)c1)c1ccccc1 [A-3, Sodium (E)-6,6′-(ethene-1,2-diyl)bis(3-benzamidobenzenesulfonate)] | > 10 | – | – | – |
| O=S(=O)([O-])c1cc(I)ccc1/C=C/c1ccc(I)cc1S(=O)(=O)[O-].[K+].[K+] [B-3, Potassium (E)-6,6′-(ethene-1,2-diyl)bis(3-iodobenzenesulfonate)] | 34 | significant reduction | inhibit | activity on nucleofilament formation compared with reference molecule BPQ (Rad51 [2]): comparable to or even better; activity on nucleofilament formation compared with reference molecule DIDS (Rad51 [2]): comparable |
| O=C(Nc1ccc(/C=C/c2ccc(NC(=O)Oc3ccccc3)cc2S(=O)(=O)[O-])c(S(=O)(=O)[O-])c1)Oc1ccccc1.[Na+].[Na+] [C-3, Sodium (E)-6,6′-(ethene-1,2-diyl)bis(3-((phenoxycarbonyl)amino)benzenesulfonate)] | – | – | – | IC50 (Rad51 [1]): 2 µM; intracellular HR inhibition [3]: significant inhibitory effect |
| O=C(Nc1ccc(/C=C/c2ccc(NC(=O)Oc3ccccc3)cc2)cc1)Oc1ccccc1 [X-2, Diphenyl (ethene-1,2-diylbis(4,1-phenylene))(E)-dicarbamate, reference compound] | – | – | – | intracellular HR inhibition [3]: does not lead to any inhibition |
| [N-]=[N+]=Nc1ccc(/C=C/c2ccc(N=[N+]=[N-])cc2)cc1 [X-4, (E)-1,2-bis(4-azidophenyl)ethene, reference compound] | – | no effect | no inhibitory effect whatsoever | – |
| CC[C@@]1(O)C(=O)OCc2c1cc1n(c2=O)Cc2cc3ccccc3nc2-1 [camptothecin, reference compound] | – | – | – | IC50 (DU-145 cell line): 0.098 µM |

Further lines, with some results ahead:

| IC50 (Rad51 [1]; [4]) [µM] | Compound | oligomerization state of RAD51 protein (HsRad51) | formation of RAD51 protein nucleofilament (relative binding of RAD51 protein with single-stranded DNA) (Rad51 [2]) | other results |
| --- | --- | --- | --- | --- |
| 6 | COc1ccc(C(=O)Nc2ccc(/C=C/c3ccc(NC(=O)c4ccc(OC)cc4)cc3S(=O)(=O)O)c(S(=O)(=O)O)c2)cc1 [A-4, Sodium (E)-6,6′-(ethene-1,2-diyl)bis(3-(4-methoxybenzamido)benzenesulfonate)] | – | – | – |
| 21 | [N-]=[N+]=Nc1ccc(/C=C/c2ccc(N=[N+]=[N-])cc2S(=O)(=O)[O-])c(S(=O)(=O)[O-])c1.[Na+].[Na+] [B-1, Sodium (E)-6,6′-(ethene-1,2-diyl)bis(3-azidobenzenesulfonate)] | significant reduction | inhibit | activity on nucleofilament formation compared with reference molecule BPQ (Rad51 [2]): comparable to or even better; activity on nucleofilament formation compared with reference molecule DIDS (Rad51 [2]): comparable |
| 41 | O=S(=O)(O)c1cc(NS(=O)(=O)c2ccccc2)ccc1/C=C/c1ccc(NS(=O)(=O)c2ccccc2)cc1S(=O)(=O)O [S-1, Sodium (E)-6,6′-(ethene-1,2-diyl)bis(3-(phenylsulfonamido)benzenesulfonate)] | – | – | – |
| 29 | Cc1ccc(S(=O)(=O)Nc2ccc(/C=C/c3ccc(NS(=O)(=O)c4ccc(C)cc4)cc3S(=O)(=O)O)c(S(=O)(=O)O)c2)cc1 [S-2, Sodium (E)-6,6′-(ethene-1,2-diyl)bis(3-((4-methylphenyl)sulfonamido)benzenesulfonate)] | – | – | – |
